Test systems include HCT-15; KM-20L2; LOX IMVI; HT-29; SF-268; COLO 205; HCT-116; SK-MEL-28; TK-10; HCC 2998; SN12C; OVCAR-5; UACC-62; U-251; CCRF-CEM; MOLT-4; 786-0; OVCAR-3; MDA-MB-231; Hs-578T.
Common to all, as to assay: growth of human tumour cells (NCI), 48 h

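All cell lines were grown in 96-well plates and treated with compound for 48 hours. Abbreviation: GI50, concentration required for 50% inhibition of growth.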 Calls of active or inactive are those of the source. Rule as the data show it: active = GI50 up to about 1.1 µM and inactive = higher.

In the case of `CC1=C(/C=C/C(C)=C/C=C/C(C)=C/C=C/C=C(C)/C=C/C=C(C)/C=C/C2=C(C)C(=O)C(O)CC2(C)C)C(C)(C)CC(O)C1=O` (stereo unspecified), the GI50 was above 100 µM with HCT-15; > 100 µM (inactive) with KM-20L2; > 100 µM (inactive) in the experiment on LOX IMVI; > 100 µM (inactive) in the experiment on HT-29; > 100 µM (inactive) with SF-268; > 100 µM (inactive) in the experiment with COLO 205. The GI50 in the experiment on HCT-116, in the experiment with SK-MEL-28, in the experiment with TK-10, in the experiment with HCC 2998, with SN12C and with OVCAR-5 was > 100 µM (inactive) in each case. For the same compound, the GI50 in the experiment with UACC-62, with U-251, in the experiment on CCRF-CEM, in the experiment on MOLT-4, in the experiment on 786-0 and in the experiment with OVCAR-3 was > 100 µM (inactive) in each case.

Turning to `C=C1COC(O)(C2OCOC(C3CC(=O)NC(=O)C3)C2O)C1C` (stereo unspecified), the GI50 in the experiment with HCT-15 was 0.00478 µM; with KM-20L2, 0.00281 µM (active); in the experiment with LOX IMVI it was 0.00158 µM (active); in the experiment on HT-29 it was 0.00278 µM (active); with SF-268, 0.00511 µM (active); in the experiment on COLO 205, 0.00244 µM (active). Further, the GI50 in the experiment on HCT-116 is 0.00348 µM (active); in the experiment with SK-MEL-28, 0.00573 µM (active); in the experiment with TK-10, 0.00895 µM (active); in the experiment on HCC 2998 it was 0.00278 µM (active); in the experiment on SN12C, 0.00224 µM (active); with OVCAR-5, < 0.0126 µM (active). The GI50 in the experiment with UACC-62 is 0.00429 µM (active); in the experiment on U-251, 0.00341 µM (active); in the experiment on CCRF-CEM it was 0.00106 µM (active); in the experiment with MDA-MB-231, 0.00847 µM (active); with MOLT-4 it was 0.0011 µM (active); in the experiment with 786-0 it was 0.00512 µM (active). Further, the GI50 is 0.00356 µM (active) with OVCAR-3 and 0.00629 µM (active) in the experiment with Hs-578T.

As to `CCOC(=O)/N=c1\ss/c(=N\C(=S)N(C)C)n1-c1ccccc1`, the GI50 in the experiment with HCT-15 is above 10 µM; in the experiment on KM-20L2 it was > 10 µM (inactive); in the experiment on LOX IMVI it was > 100 µM (inactive); with HT-29, 3.17 µM (inactive); in the experiment with SF-268, 2.06 µM (inactive); in the experiment on COLO 205, 3.19 µM (inactive). The GI50 in the experiment on HCT-116 was 7.62 µM (inactive); with SK-MEL-28, 1.82 µM (inactive); in the experiment with TK-10 it was 63 µM (inactive); in the experiment with HCC 2998, > 10 µM (inactive); in the experiment on SN12C it was > 10 µM (inactive); in the experiment on OVCAR-5, > 100 µM (inactive). Further, the GI50 was 72.3 µM (inactive) in the experiment on UACC-62; 19.4 µM (inactive) in the experiment with U-251; 29.6 µM (inactive) in the experiment on CCRF-CEM; 4.27 µM (inactive) in the experiment on MOLT-4; 14.6 µM (inactive) with 786-0; 0.394 µM (active) in the experiment on OVCAR-3.

On to `N#CCCN(CCC#N)c1ccc(/C=N\c2ccc(F)cc2)cc1`, for which the GI50 was 1.15 µM in the experiment on HCT-15; 0.152 µM (active) in the experiment with KM-20L2; 0.236 µM (active) with LOX IMVI; 35.2 µM (inactive) in the experiment with SF-268; 14 µM (inactive) with COLO 205; 6.97 µM (inactive) in the experiment on HCT-116. In addition, the GI50 in the experiment with SK-MEL-28 is > 48.5 µM (inactive); in the experiment with TK-10 it was > 24 µM (inactive); in the experiment with HCC 2998, 1.33 µM (inactive); with SN12C, > 75 µM (inactive); with UACC-62 it was 0.536 µM (active); in the experiment on U-251 it was > 100 µM (inactive). Moreover, the GI50 with CCRF-CEM is 20.8 µM (inactive); with MDA-MB-231, > 100 µM (inactive); in the experiment on MOLT-4 it was > 19.8 µM (inactive); with 786-0, > 31.3 µM (inactive); with OVCAR-3, > 79.1 µM (inactive).

`CCO[C@@H]1C2C=CC(C2)[C@H]1[N+](=O)[O-]` (stereo partly specified): the GI50 with HCT-15 is above 100 µM; with KM-20L2, > 100 µM (inactive); in the experiment with LOX IMVI, > 100 µM (inactive); in the experiment with HT-29 it was > 100 µM (inactive); in the experiment on SF-268 it was > 100 µM (inactive); in the experiment with COLO 205, > 100 µM (inactive). For the same compound, the GI50 in the experiment with HCT-116, in the experiment with SK-MEL-28, in the experiment with TK-10, with HCC 2998, in the experiment on SN12C and in the experiment with OVCAR-5 was > 100 µM (inactive) throughout. Moreover, the GI50 in the experiment on UACC-62 was > 100 µM (inactive); in the experiment with U-251, > 100 µM (inactive); with CCRF-CEM, 36.9 µM (inactive); in the experiment on MOLT-4, > 100 µM (inactive); in the experiment with 786-0, > 100 µM (inactive); with OVCAR-3 it was > 100 µM (inactive).

For the compound `COc1ccc2nc3ccccc3c(NCCN(C)CCCl)c2c1`, the GI50 in the experiment on HCT-15 was 0.515 µM; in the experiment with KM-20L2 it was 0.438 µM (active); in the experiment on LOX IMVI it was 0.336 µM (active); in the experiment with HT-29, 0.377 µM (active); with SF-268, 0.55 µM (active); in the experiment on COLO 205, 0.299 µM (active). The GI50 in the experiment with HCT-116 is 0.249 µM (active); in the experiment on SK-MEL-28, 1.69 µM (inactive); in the experiment with TK-10 it was 1.62 µM (inactive); with HCC 2998, 0.67 µM (active); in the experiment with SN12C it was 0.319 µM (active); in the experiment with OVCAR-5, 1.03 µM (active). Besides, the GI50 is 0.681 µM (active) in the experiment with UACC-62; 0.541 µM (active) in the experiment on U-251; 0.353 µM (active) in the experiment on CCRF-CEM; 1.15 µM (inactive) in the experiment with MDA-MB-231; 0.0429 µM (active) in the experiment on MOLT-4; 0.21 µM (active) with 786-0. In the experiment on OVCAR-3, the GI50 is 0.736 µM (active).

`O=C(CC1=Nc2nnc(-c3nnc4n3C(=O)C(CC(=O)c3cccnc3)=N4)n2C1=O)c1cccnc1`: the GI50 was above 100 µM in the experiment on HCT-15; > 100 µM (inactive) with KM-20L2; > 100 µM (inactive) in the experiment on LOX IMVI; > 100 µM (inactive) with HT-29; > 100 µM (inactive) with SF-268; > 100 µM (inactive) in the experiment on COLO 205. The GI50 in the experiment on HCT-116, with SK-MEL-28, with TK-10, in the experiment with HCC 2998, in the experiment on SN12C and in the experiment on OVCAR-5 was > 100 µM (inactive) each time. Further, the GI50 with UACC-62, with U-251, in the experiment with CCRF-CEM, in the experiment with MOLT-4, with 786-0 and in the experiment on OVCAR-3 was > 100 µM (inactive) each time.

With `COc1ccc(CC(C)N)cc1` (stereo unspecified) [PARA-METHOXYAMPHETAMINE], the GI50 is above 100 µM in the experiment with HCT-15; > 100 µM (inactive) in the experiment with KM-20L2; > 100 µM (inactive) with LOX IMVI; > 100 µM (inactive) in the experiment with HT-29; > 100 µM (inactive) with SF-268; > 100 µM (inactive) in the experiment with COLO 205. In addition, the GI50 in the experiment with HCT-116, in the experiment with SK-MEL-28, in the experiment on TK-10, with HCC 2998, in the experiment with SN12C and in the experiment on OVCAR-5 was > 100 µM (inactive) throughout. Besides, the GI50 in the experiment with UACC-62, with U-251, in the experiment on CCRF-CEM, with MOLT-4, with 786-0 and in the experiment on OVCAR-3 was > 100 µM (inactive) in each case.

For the origin of these results see ChEMBL document CHEMBL1201862, “PubChem BioAssay data set” (2004).
